Values after ≈ are worked out from the molar mass of the structure shown.
Key:
[1] = Cytotoxicity against human melanoma cells; assay type: functional; settings: Melanoma cell
[2] = Cytotoxicity against human colon cancer cells; assay type: functional; settings: Cancer cell lines
[3] = read-out: LC50 (the source's name)

C#C[C@H](O)/C=C\CCCCCCCCCCCCCCCCCCCCCCCC/C=C/CCCCCCC/C=C/[C@@H](O)C#C [VASCULYNE]
GI50 [1]: 0.2 µg/mL (≈ 0.321 µM)
TGI [1]: 0.7 µg/mL (≈ 1.12 µM)
CC50 [1, 3]: 6.7 µg/mL (≈ 10.8 µM)
GI50 [2]: 0.2 µg/mL (≈ 0.321 µM)
TGI [2]: 0.7 µg/mL (≈ 1.12 µM)
CC50 [2, 3]: 6.7 µg/mL (≈ 10.8 µM)
